From patent publication US20130116263A1, “PAK INHIBITORS FOR THE TREATMENT OF CELL PROLIFERATIVE DISORDERS” (AFRAXIS, INC., priority 2011, published 2013)

biological target: PAK4 (Homo sapiens, UniProt O96013); assay: Additional in vitro PAK-4 inhibition assay at ATP 10 uM and 1 mM; assay type: biochemical; conditions: 10 μM ATP; read-out: PAK4 IC50 (10 μM ATP)
Procedure: (§1) Similar in vitro PAK1 and PAK-4 inhibition assays are conducted in compounds for the treatment of cancer, but under ATP concentrations of 10 uM and 1 mM.

Sequence of PAK4 (O96013 whole entry): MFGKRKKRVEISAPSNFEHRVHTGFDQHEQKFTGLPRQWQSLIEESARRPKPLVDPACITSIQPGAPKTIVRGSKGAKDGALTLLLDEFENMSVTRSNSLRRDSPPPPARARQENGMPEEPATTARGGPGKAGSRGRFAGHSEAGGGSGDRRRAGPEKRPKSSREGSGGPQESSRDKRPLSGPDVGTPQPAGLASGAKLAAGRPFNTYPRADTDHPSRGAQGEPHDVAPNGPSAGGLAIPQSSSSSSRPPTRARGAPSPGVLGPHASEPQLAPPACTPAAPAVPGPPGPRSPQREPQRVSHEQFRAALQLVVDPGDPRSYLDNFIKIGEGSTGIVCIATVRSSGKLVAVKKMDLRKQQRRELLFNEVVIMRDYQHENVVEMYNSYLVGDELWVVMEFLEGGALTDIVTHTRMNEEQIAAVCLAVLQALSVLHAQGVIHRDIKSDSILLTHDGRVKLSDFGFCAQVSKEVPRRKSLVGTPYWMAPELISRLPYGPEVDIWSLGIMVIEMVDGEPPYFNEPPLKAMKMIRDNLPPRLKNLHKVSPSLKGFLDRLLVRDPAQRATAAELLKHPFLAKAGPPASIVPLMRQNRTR

SMILES	IC50
Cc1nc(-c2ccc(-c3cc4cnc(NC5CCOCC5)nc4n(CC(=O)NCc4ccncc4)c3=O)c(Cl)c2)no1 [drawing 348]	≥ 5 µM
Cc1nc(-c2ccc(-c3cc4cnc(NC5CCOCC5)nc4n(Cc4ccc(CN)cc4)c3=O)c(Cl)c2)no1 [drawing 341]	≥ 5 µM
CCn1c(=O)c(-c2ccc(-c3noc(C)n3)cc2Cl)cc2cnc(N[C@@H]3CCO[C@@H]3N3CCN(C)CC3)nc21	≥ 5 µM
Cc1nc(-c2ccc(-c3cc4cnc(NC5CCOCC5)nc4n(Cc4c(F)cccc4C(F)(F)F)c3=O)c(Cl)c2)no1	≥ 5 µM
CCn1c(=O)c(-c2ccc(-c3noc(C)n3)cc2Cl)cc2cnc(NCC(=O)N(C)C)nc21	0.05 to 0.5 µM
CCn1c(=O)c(-c2ccc(-c3noc(C)n3)cc2Cl)cc2cnc(N[C@H]3CC[C@H](N4CCN(C)CC4)CC3)nc21	≥ 5 µM
CCO[C@H]1COC[C@@H]1Nc1ncc2cc(-c3ccc(-c4noc(C)n4)cc3Cl)c(=O)n(CC)c2n1	≥ 5 µM
Cc1nc(-c2ccc(-c3cc4cnc(NC5CCOCC5)nc4n(CC(=O)N4CCC(CN)CC4)c3=O)c(Cl)c2)no1 [drawing 352]	≥ 5 µM
CCn1c(=O)c(-c2ccc(-c3noc(C)n3)cc2Cl)cc2cnc(NCc3ccccc3)nc21	≥ 5 µM
Cc1nc(-c2ccc(-c3cc4cnc(NC5CCNC(=O)C5)nc4n(Cc4c(F)cccc4C(F)(F)F)c3=O)c(Cl)c2)no1 (stereo not drawn) [drawing 354]	≥ 5 µM
CCn1c(=O)c(-c2ccc(-c3noc(C)n3)cc2Cl)cc2cnc(NC3COC3)nc21	≥ 5 µM
Cc1nc(-c2ccc(-c3cc4cnc(NC5CCOCC5)nc4n(CC(=O)N4CCC(N)CC4)c3=O)c(Cl)c2)no1	≥ 5 µM
Cc1nc(-c2ccc(-c3cc4cnc(NC5CCOCC5)nc4n(CC4CCN(C)CC4)c3=O)c(Cl)c2)no1	≥ 5 µM
CCn1c(=O)c(-c2ccc(-c3noc(C)n3)cc2Cl)cc2cnc(NC3CCN(C)C3=O)nc21 (stereo not drawn)	≥ 5 µM
Cc1nc(-c2ccc(-c3cc4cnc(NC5CCOCC5)nc4n(Cc4ccc(CCN)cc4)c3=O)c(Cl)c2)no1 [drawing 338]	≥ 5 µM
CCn1c(=O)c(-c2ccc(-c3noc(C)n3)cc2Cl)cc2cnc(NC3CCC(=O)NC3)nc21 (stereo not drawn)	≥ 5 µM
Cc1nc(-c2ccc(-c3cc4cnc(N[C@H]5C[C@@H]5C)nc4n(CC4CCNCC4)c3=O)c(Cl)c2)no1	≥ 5 µM
CCCCn1c(=O)c(-c2ccc(-c3noc(C)n3)cc2Cl)cc2cnc(NC3CCOCC3)nc21	≥ 5 µM
Cc1nc(-c2ccc(-c3cc4cnc(NC5CCOCC5)nc4n(-c4ccccc4)c3=O)c(Cl)c2)no1	≥ 5 µM
CCn1c(=O)c(-c2ccc(-c3noc(C)n3)cc2Cl)cc2cnc(NCC(=O)NC)nc21	≥ 5 µM
Cc1nc(-c2ccc(-c3cc4cnc(NC5CCOCC5)nc4n(C4CC4)c3=O)c(Cl)c2)no1	≥ 5 µM
CCn1c(=O)c(-c2ccc(-c3noc(C)n3)cc2Cl)cc2cnc(NC3CC3)nc21	≥ 5 µM
Cc1nc(-c2ccc(-c3cc4cnc(NC5CCOCC5)nc4n(CC4CCCN(C)C4)c3=O)c(Cl)c2)no1 (stereo not drawn)	≥ 5 µM
CCn1c(=O)c(-c2ccc(-c3noc(C)n3)cc2Cl)cc2cnc(NCC3CCOCC3)nc21	≥ 5 µM
Cc1nc(-c2ccc(-c3cc4cnc(NC5CCOCC5)nc4n(CC(=O)NC4CCCNC4)c3=O)c(Cl)c2)no1 (stereo not drawn)	≥ 5 µM
Cc1nc(-c2ccc(-c3cc4cnc(NC5CCOCC5)nc4n(CC(=O)N4CCCC(N)C4)c3=O)c(Cl)c2)no1 (stereo not drawn)	≥ 5 µM
CCn1c(=O)c(-c2ccc(-c3noc(C)n3)cc2Cl)cc2cnc(NCC(C)(C)O)nc21	≥ 5 µM

biological target: PAK1 (Homo sapiens, UniProt Q13153); assay: Additional in vitro PAK1 inhibition assay at ATP 10 uM and 1 mM; assay type: biochemical; conditions: 10 μM ATP; read-out: PAK1 IC50 (10 μM ATP)
Sequence (Q13153 whole entry): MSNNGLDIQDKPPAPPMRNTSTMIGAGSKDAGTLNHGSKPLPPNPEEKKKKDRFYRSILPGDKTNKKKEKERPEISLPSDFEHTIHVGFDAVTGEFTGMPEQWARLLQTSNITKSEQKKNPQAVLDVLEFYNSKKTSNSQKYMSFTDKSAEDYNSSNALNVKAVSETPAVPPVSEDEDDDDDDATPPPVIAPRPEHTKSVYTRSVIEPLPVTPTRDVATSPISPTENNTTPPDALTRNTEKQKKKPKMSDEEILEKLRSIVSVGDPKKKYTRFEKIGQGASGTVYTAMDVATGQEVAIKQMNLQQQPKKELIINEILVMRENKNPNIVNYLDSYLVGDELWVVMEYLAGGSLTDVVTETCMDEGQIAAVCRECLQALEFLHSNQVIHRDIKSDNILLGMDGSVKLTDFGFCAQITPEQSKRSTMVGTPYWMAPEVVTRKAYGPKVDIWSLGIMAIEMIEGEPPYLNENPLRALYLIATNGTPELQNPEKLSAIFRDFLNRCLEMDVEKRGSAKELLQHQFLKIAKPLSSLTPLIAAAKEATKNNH
Procedure: as §1

SMILES	IC50
Cc1nc(-c2ccc(-c3cc4cnc(NC5CCOCC5)nc4n(CC(=O)NCc4ccncc4)c3=O)c(Cl)c2)no1 [drawing 348]	0.05 to 0.5 µM
Cc1nc(-c2ccc(-c3cc4cnc(NC5CCOCC5)nc4n(Cc4ccc(CN)cc4)c3=O)c(Cl)c2)no1 [drawing 341]	< 0.05 µM
CCn1c(=O)c(-c2ccc(-c3noc(C)n3)cc2Cl)cc2cnc(N[C@@H]3CCO[C@@H]3N3CCN(C)CC3)nc21	0.05 to 0.5 µM
Cc1nc(-c2ccc(-c3cc4cnc(NC5CCOCC5)nc4n(Cc4c(F)cccc4C(F)(F)F)c3=O)c(Cl)c2)no1	0.05 to 0.5 µM
CCn1c(=O)c(-c2ccc(-c3noc(C)n3)cc2Cl)cc2cnc(NCC(=O)N(C)C)nc21	≥ 5 µM
CCn1c(=O)c(-c2ccc(-c3noc(C)n3)cc2Cl)cc2cnc(N[C@H]3CC[C@H](N4CCN(C)CC4)CC3)nc21	0.5 to 5 µM
CCO[C@H]1COC[C@@H]1Nc1ncc2cc(-c3ccc(-c4noc(C)n4)cc3Cl)c(=O)n(CC)c2n1	0.5 to 5 µM
Cc1nc(-c2ccc(-c3cc4cnc(NC5CCOCC5)nc4n(CC(=O)N4CCC(CN)CC4)c3=O)c(Cl)c2)no1 [drawing 352]	< 0.05 µM
CCn1c(=O)c(-c2ccc(-c3noc(C)n3)cc2Cl)cc2cnc(NCc3ccccc3)nc21	0.5 to 5 µM
Cc1nc(-c2ccc(-c3cc4cnc(NC5CCNC(=O)C5)nc4n(Cc4c(F)cccc4C(F)(F)F)c3=O)c(Cl)c2)no1 (stereo not drawn) [drawing 354]	< 0.05 µM
CCn1c(=O)c(-c2ccc(-c3noc(C)n3)cc2Cl)cc2cnc(NC3COC3)nc21	0.05 to 0.5 µM
Cc1nc(-c2ccc(-c3cc4cnc(NC5CCOCC5)nc4n(CC(=O)N4CCC(N)CC4)c3=O)c(Cl)c2)no1	0.05 to 0.5 µM
Cc1nc(-c2ccc(-c3cc4cnc(NC5CCOCC5)nc4n(CC4CCN(C)CC4)c3=O)c(Cl)c2)no1	0.05 to 0.5 µM
CCn1c(=O)c(-c2ccc(-c3noc(C)n3)cc2Cl)cc2cnc(NC3CCN(C)C3=O)nc21 (stereo not drawn)	≥ 5 µM
Cc1nc(-c2ccc(-c3cc4cnc(NC5CCOCC5)nc4n(Cc4ccc(CCN)cc4)c3=O)c(Cl)c2)no1 [drawing 338]	< 0.05 µM
CCn1c(=O)c(-c2ccc(-c3noc(C)n3)cc2Cl)cc2cnc(NC3CCC(=O)NC3)nc21 (stereo not drawn)	0.5 to 5 µM
Cc1nc(-c2ccc(-c3cc4cnc(N[C@H]5C[C@@H]5C)nc4n(CC4CCNCC4)c3=O)c(Cl)c2)no1	< 0.05 µM
CCCCn1c(=O)c(-c2ccc(-c3noc(C)n3)cc2Cl)cc2cnc(NC3CCOCC3)nc21	0.05 to 0.5 µM
Cc1nc(-c2ccc(-c3cc4cnc(NC5CCOCC5)nc4n(-c4ccccc4)c3=O)c(Cl)c2)no1	0.05 to 0.5 µM
CCn1c(=O)c(-c2ccc(-c3noc(C)n3)cc2Cl)cc2cnc(NCC(=O)NC)nc21	0.5 to 5 µM
Cc1nc(-c2ccc(-c3cc4cnc(NC5CCOCC5)nc4n(C4CC4)c3=O)c(Cl)c2)no1	0.05 to 0.5 µM
CCn1c(=O)c(-c2ccc(-c3noc(C)n3)cc2Cl)cc2cnc(NC3CC3)nc21	0.05 to 0.5 µM
Cc1nc(-c2ccc(-c3cc4cnc(NC5CCOCC5)nc4n(CC4CCCN(C)C4)c3=O)c(Cl)c2)no1 (stereo not drawn)	0.05 to 0.5 µM
CCn1c(=O)c(-c2ccc(-c3noc(C)n3)cc2Cl)cc2cnc(NCC3CCOCC3)nc21	0.5 to 5 µM
Cc1nc(-c2ccc(-c3cc4cnc(NC5CCOCC5)nc4n(CC(=O)NC4CCCNC4)c3=O)c(Cl)c2)no1 (stereo not drawn)	0.05 to 0.5 µM
Cc1nc(-c2ccc(-c3cc4cnc(NC5CCOCC5)nc4n(CC(=O)N4CCCC(N)C4)c3=O)c(Cl)c2)no1 (stereo not drawn)	0.05 to 0.5 µM
CCn1c(=O)c(-c2ccc(-c3noc(C)n3)cc2Cl)cc2cnc(NCC(C)(C)O)nc21	0.5 to 5 µM

same assay, conditions: 1 mM ATP; read-out: PAK1 IC50 (1 mM ATP)

SMILES	IC50
Cc1nc(-c2ccc(-c3cc4cnc(NC5CCOCC5)nc4n(CC(=O)NCc4ccncc4)c3=O)c(Cl)c2)no1 [drawing 348]	≥ 5 µM
Cc1nc(-c2ccc(-c3cc4cnc(NC5CCOCC5)nc4n(Cc4ccc(CN)cc4)c3=O)c(Cl)c2)no1 [drawing 341]	0.05 to 0.5 µM
CCn1c(=O)c(-c2ccc(-c3noc(C)n3)cc2Cl)cc2cnc(N[C@@H]3CCO[C@@H]3N3CCN(C)CC3)nc21	≥ 5 µM
Cc1nc(-c2ccc(-c3cc4cnc(NC5CCOCC5)nc4n(Cc4c(F)cccc4C(F)(F)F)c3=O)c(Cl)c2)no1	0.5 to 5 µM
CCn1c(=O)c(-c2ccc(-c3noc(C)n3)cc2Cl)cc2cnc(NCC(=O)N(C)C)nc21	≥ 5 µM
CCn1c(=O)c(-c2ccc(-c3noc(C)n3)cc2Cl)cc2cnc(N[C@H]3CC[C@H](N4CCN(C)CC4)CC3)nc21	≥ 5 µM
CCO[C@H]1COC[C@@H]1Nc1ncc2cc(-c3ccc(-c4noc(C)n4)cc3Cl)c(=O)n(CC)c2n1	≥ 5 µM
Cc1nc(-c2ccc(-c3cc4cnc(NC5CCOCC5)nc4n(CC(=O)N4CCC(CN)CC4)c3=O)c(Cl)c2)no1 [drawing 352]	≥ 5 µM
CCn1c(=O)c(-c2ccc(-c3noc(C)n3)cc2Cl)cc2cnc(NCc3ccccc3)nc21	≥ 5 µM
Cc1nc(-c2ccc(-c3cc4cnc(NC5CCNC(=O)C5)nc4n(Cc4c(F)cccc4C(F)(F)F)c3=O)c(Cl)c2)no1 (stereo not drawn) [drawing 354]	0.5 to 5 µM
CCn1c(=O)c(-c2ccc(-c3noc(C)n3)cc2Cl)cc2cnc(NC3COC3)nc21	≥ 5 µM
Cc1nc(-c2ccc(-c3cc4cnc(NC5CCOCC5)nc4n(CC(=O)N4CCC(N)CC4)c3=O)c(Cl)c2)no1	≥ 5 µM
Cc1nc(-c2ccc(-c3cc4cnc(NC5CCOCC5)nc4n(CC4CCN(C)CC4)c3=O)c(Cl)c2)no1	≥ 5 µM
CCn1c(=O)c(-c2ccc(-c3noc(C)n3)cc2Cl)cc2cnc(NC3CCN(C)C3=O)nc21 (stereo not drawn)	≥ 5 µM
Cc1nc(-c2ccc(-c3cc4cnc(NC5CCOCC5)nc4n(Cc4ccc(CCN)cc4)c3=O)c(Cl)c2)no1 [drawing 338]	0.5 to 5 µM
CCn1c(=O)c(-c2ccc(-c3noc(C)n3)cc2Cl)cc2cnc(NC3CCC(=O)NC3)nc21 (stereo not drawn)	≥ 5 µM
Cc1nc(-c2ccc(-c3cc4cnc(N[C@H]5C[C@@H]5C)nc4n(CC4CCNCC4)c3=O)c(Cl)c2)no1	0.5 to 5 µM
CCCCn1c(=O)c(-c2ccc(-c3noc(C)n3)cc2Cl)cc2cnc(NC3CCOCC3)nc21	≥ 5 µM
Cc1nc(-c2ccc(-c3cc4cnc(NC5CCOCC5)nc4n(-c4ccccc4)c3=O)c(Cl)c2)no1	≥ 5 µM
CCn1c(=O)c(-c2ccc(-c3noc(C)n3)cc2Cl)cc2cnc(NCC(=O)NC)nc21	≥ 5 µM
Cc1nc(-c2ccc(-c3cc4cnc(NC5CCOCC5)nc4n(C4CC4)c3=O)c(Cl)c2)no1	≥ 5 µM
CCn1c(=O)c(-c2ccc(-c3noc(C)n3)cc2Cl)cc2cnc(NC3CC3)nc21	≥ 5 µM
Cc1nc(-c2ccc(-c3cc4cnc(NC5CCOCC5)nc4n(CC4CCCN(C)C4)c3=O)c(Cl)c2)no1 (stereo not drawn)	≥ 5 µM
CCn1c(=O)c(-c2ccc(-c3noc(C)n3)cc2Cl)cc2cnc(NCC3CCOCC3)nc21	≥ 5 µM
Cc1nc(-c2ccc(-c3cc4cnc(NC5CCOCC5)nc4n(CC(=O)NC4CCCNC4)c3=O)c(Cl)c2)no1 (stereo not drawn)	≥ 5 µM
Cc1nc(-c2ccc(-c3cc4cnc(NC5CCOCC5)nc4n(CC(=O)N4CCCC(N)C4)c3=O)c(Cl)c2)no1 (stereo not drawn)	≥ 5 µM
CCn1c(=O)c(-c2ccc(-c3noc(C)n3)cc2Cl)cc2cnc(NCC(C)(C)O)nc21	≥ 5 µM
